Drawing on PubChem BioAssay (NCI), this text covers TGI and GI50 for 13 compounds.

Structures are written as SMILES.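 Interpolation was linear, between the two tested concentrations surrounding the appropriate level; five concentrations were tested over 48 hours in 96-well plates. Here, GI50 denotes the concentration required for 50% inhibition of growth. At the TGI there is no net growth.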 Where a SMILES comes first, the peptide text is derived from it. [ ]: non-standard residue; d: D form. The star is where a group is joined. Bn2Val = CC(C)[C@@H](C(=O)*)N(Cc1ccccc1)Cc1ccccc1; NH(4-Cl-benzyl) = Clc1ccc(CN*)cc1; NMeV = CN[C@H](C(=O)O)C(C)C; dNMeA = CN[C@H](C)C(=O)O

Among the test systems are CCRF-CEM leukemia; DU-145 prostate; HCT-116 colon; MCF7 breast; MOLT-4 leukemia; SK-MEL-28 melanoma; SN12C renal; T-47D breast; UACC-257 melanoma; UO-31 renal.
Common to all, as to assay: NCI tumour cell line growth inhibition, 48 h

For `CN(C)/N=N/c1nc2c(c(=O)n(C)c(=O)n2C)n1CC(O)CO` (centres undefined), the TGI with CCRF-CEM leukemia, in the assay on DU-145 prostate, in the assay on HCT-116 colon, with MCF7 breast, in the assay on MOLT-4 leukemia and with SK-MEL-28 melanoma was over 100 µM in each case. Also, the TGI with SN12C renal, with T-47D breast, in the assay on UACC-257 melanoma and with UO-31 renal was over 100 µM each time.
On to `O=C(c1cccs1)N1CCN(C(=O)c2cccs2)C1=S`, for which the TGI turned out to be 6.87 µM with CCRF-CEM leukemia; 7.7 µM with DU-145 prostate; 21.7 µM with HCT-116 colon; 14.8 µM with MCF7 breast; 8.18 µM in the assay on MOLT-4 leukemia; 19.2 µM with SK-MEL-28 melanoma. The TGI amounted to 10.1 µM in the assay with SN12C renal, 23.8 µM in the assay with T-47D breast, 22.9 µM with UACC-257 melanoma and 8.5 µM in the assay with UO-31 renal.
As to `O=C1c2c(O)cccc2-c2nn(CCNCCO)c3ccc(NCCNCCO)c1c23`, the TGI in the assay on CCRF-CEM leukemia turned out to be 0.0631 µM; in the assay with DU-145 prostate, 0.0707 µM; with HCT-116 colon it was 2.75 µM; with MCF7 breast, 3.15 µM; in the assay with MOLT-4 leukemia, 0.086 µM; in the assay on SK-MEL-28 melanoma, 1.97 µM. For the same compound, the TGI in the assay with SN12C renal was determined as 0.454 µM; in the assay on T-47D breast it was 4.61 µM; in the assay with UACC-257 melanoma it was 5.69 µM; in the assay on UO-31 renal it was 10.2 µM.
Take `CCN(CC)C(=S)SS(=O)(=O)c1cccc(N)c1`: the TGI in the assay on DU-145 prostate, in the assay with HCT-116 colon, in the assay on MCF7 breast, in the assay with MOLT-4 leukemia, in the assay on SK-MEL-28 melanoma and in the assay on SN12C renal was over 100 µM in each case. In addition, the TGI with T-47D breast, in the assay with UACC-257 melanoma and in the assay on UO-31 renal was over 100 µM in each case.
Take `CC(C)[C@H](NC(=O)[C@H](C(C)C)N(Cc1ccccc1)Cc1ccccc1)C(=O)N(C)[C@H](C(=O)N1CCC[C@H]1C(=O)N(C)[C@H](C)C(=O)NCc1ccc(Cl)cc1)C(C)C` (Bn2Val-V[NMeV]P[dNMeA]-{NH(4-Cl-benzyl)}): the TGI in the assay on CCRF-CEM leukemia was 7.43 µM; with DU-145 prostate, over 100 µM; in the assay on HCT-116 colon, 11.7 µM; with MOLT-4 leukemia, over 100 µM; in the assay with SK-MEL-28 melanoma, 36.3 µM; with SN12C renal, 6.35 µM. The TGI in the assay on T-47D breast and in the assay with UACC-257 melanoma was over 100 µM each time.
Turning to `Cc1cc(C)c2c(c1)C(=O)/C(=C/c1ccccc1C(=O)O)C2`, the TGI with CCRF-CEM leukemia, with DU-145 prostate, with HCT-116 colon, in the assay on MCF7 breast, in the assay on MOLT-4 leukemia and with SK-MEL-28 melanoma was over 100 µM throughout. Further, the TGI in the assay with SN12C renal, with T-47D breast, in the assay on UACC-257 melanoma and in the assay with UO-31 renal was over 100 µM throughout.
As for `COc1cc(C2c3cc4c(cc3C3OC[C@@H]2C3CO)OCO4)cc(OC)c1OC` (some centres undefined), the TGI in the assay on CCRF-CEM leukemia, with DU-145 prostate, in the assay with HCT-116 colon, in the assay on MCF7 breast, in the assay on MOLT-4 leukemia and in the assay with SK-MEL-28 melanoma was over 100 µM each time. Further, the TGI with SN12C renal was over 100 µM; in the assay with T-47D breast it was over 100 µM; in the assay on UACC-257 melanoma, 76.5 µM; with UO-31 renal it was over 100 µM. The results for the GI50 with DU-145 prostate, in the assay on HCT-116 colon and with SN12C renal were 30.4 µM, 30.3 µM and 59.4 µM, respectively.
On to `CC(C)(C)CC(C)(C)c1cc(O)c(O)c(CN2CCCCC2)c1`, for which the TGI in the assay with DU-145 prostate was determined as 30.5 µM; in the assay with HCT-116 colon, 29.5 µM; with MCF7 breast, 25.1 µM; in the assay on MOLT-4 leukemia, 16.4 µM; with SK-MEL-28 melanoma it was 32.8 µM; with SN12C renal it was 30.3 µM. For the same compound, the TGI is 33.9 µM in the assay with T-47D breast, 26.1 µM in the assay with UACC-257 melanoma and 26.1 µM with UO-31 renal.
Consider `COc1cccc(N=N/C(=N\NC(=O)c2ccc(C)cc2)c2ccc(N(CCC#N)CCC#N)cc2C)c1`, for which the TGI in the assay with DU-145 prostate, in the assay on HCT-116 colon, in the assay on MCF7 breast, in the assay on MOLT-4 leukemia, in the assay with SK-MEL-28 melanoma and with SN12C renal was over 100 µM throughout. In addition, the TGI in the assay on T-47D breast, with UACC-257 melanoma and with UO-31 renal was over 100 µM in each case.
As for `C=CCOn1c(C=C)nc2ccc(C)cc21`, the TGI came to 7.21 µM with CCRF-CEM leukemia; 24.4 µM with HCT-116 colon; 24.9 µM in the assay on MCF7 breast; 68.8 µM with MOLT-4 leukemia; 38 µM in the assay with SK-MEL-28 melanoma; 33.4 µM in the assay with SN12C renal. Besides, the TGI in the assay with T-47D breast was 43.5 µM; with UACC-257 melanoma, 32.3 µM; with UO-31 renal, 27.4 µM.
With `C/C(=N\NC(=S)N(C)C)c1cccnn1`, the TGI was over 100 µM in the assay with DU-145 prostate; over 25.9 µM in the assay on HCT-116 colon; over 45 µM in the assay on MCF7 breast; 3.08 µM in the assay with MOLT-4 leukemia; over 100 µM with SK-MEL-28 melanoma; over 100 µM in the assay on SN12C renal. Moreover, the figures for the TGI in the assay with T-47D breast, in the assay on UACC-257 melanoma and in the assay on UO-31 renal were over 100 µM, 2.98 µM and 5.04 µM, respectively.
Regarding `C=CCC1C(O[Si](C)(C)C(C)(C)C)C(CO[Si](C)(C)C(C)(C)C)OC1n1ccc(=O)[nH]c1=O` (centres undefined), the TGI turned out to be 2.86 µM in the assay on CCRF-CEM leukemia; 4.54 µM in the assay with DU-145 prostate; 2.5 µM with HCT-116 colon; 2.84 µM in the assay on MOLT-4 leukemia; 3.05 µM in the assay on SK-MEL-28 melanoma; 2.8 µM in the assay with SN12C renal. The TGI in the assay with T-47D breast amounted to 4.37 µM; in the assay on UACC-257 melanoma it was 3.37 µM; in the assay on UO-31 renal it was 2.83 µM.
For `CC(=O)Nc1ccc(OC/C(N)=N/NC(=O)c2ccncc2)cc1`, the TGI in the assay with CCRF-CEM leukemia, with DU-145 prostate, with HCT-116 colon, with MCF7 breast, with MOLT-4 leukemia and with SK-MEL-28 melanoma was over 100 µM throughout. Further, the TGI in the assay on SN12C renal, in the assay on T-47D breast and in the assay with UACC-257 melanoma was over 100 µM each time.
